Test results as given in PMC8016481, “Tachykinin signaling inhibits task-specific behavioral responsiveness in honeybee workers” (eLife, 2021).
Values joined by “and” are separate entries in the source; they are usually repeats but may differ in a detail not shown here. Equal entries are not always repeated. Where two headings read alike, the source gives them in different places. Ends that are not written are not given here.

Key:
[1] = system: TRPR
[2] = system: TRPR; remark: listed apart in the source
[3] = system: honeybee TRPR; test: Competitive binding of TRPs to TRPR in HEK293 cells (displacement of TAMRA-TRP2/TAMRA-TRP3); parameters: species or system Apis mellifera; details: HEK293
[4] = system: honeybee TRPR; test: Competitive binding of TRPs to TRPR in Sf21 cells (displacement of TAMRA-TRP2/TAMRA-TRP3); parameters: species or system Apis mellifera
[5] = system: TRPR; remark: listed apart in the source
[6] = system: TRP2-induced ERK1/2 phosphorylation; test: Effect of inhibitors on TRP2-induced ERK1/2 phosphorylation, Sf21 cells; assay type: cell-based, Spodoptera frugiperda
[7] = system: TRP2-induced ERK1/2 phosphorylation; test: Effect of inhibitors on TRP2-induced ERK1/2 phosphorylation, HEK293 cells; assay type: cell-based, Homo sapiens
[8] = system: TRP2-mediated cAMP accumulation; test: Effect of PTX, CTX, YM-254890 and H89 on TRP2-mediated cAMP accumulation, HEK293 cells expressing TRPR; assay type: cell-based, Homo sapiens
[9] = biological target: honeybee tachykinin-related peptide receptor (FLAG-TRPR) expressed in HEK293 cells (Apis mellifera)
[10] = biological target: honeybee tachykinin-related peptide receptor (FLAG-TRPR) expressed in Sf21 cells (Apis mellifera)
[11] = biological target: honeybee tachykinin-related peptide receptor (FLAG-TRPR) expressed in HEK293 cells (Apis mellifera); remark: listed apart in the source
[12] = Sf21, 2 hr pretreatment, then TRP2 (10 nM or 1 μM) for 10 min
[13] = HEK293, 2 hr pretreatment, then TRP2 (10 nM or 1 μM) for 10 min

Chain of honeybee tachykinin-related peptide receptor (FLAG-TRPR) expressed in HEK293 cells (Apis mellifera) (A0ACM8RFV8 entry or part of it): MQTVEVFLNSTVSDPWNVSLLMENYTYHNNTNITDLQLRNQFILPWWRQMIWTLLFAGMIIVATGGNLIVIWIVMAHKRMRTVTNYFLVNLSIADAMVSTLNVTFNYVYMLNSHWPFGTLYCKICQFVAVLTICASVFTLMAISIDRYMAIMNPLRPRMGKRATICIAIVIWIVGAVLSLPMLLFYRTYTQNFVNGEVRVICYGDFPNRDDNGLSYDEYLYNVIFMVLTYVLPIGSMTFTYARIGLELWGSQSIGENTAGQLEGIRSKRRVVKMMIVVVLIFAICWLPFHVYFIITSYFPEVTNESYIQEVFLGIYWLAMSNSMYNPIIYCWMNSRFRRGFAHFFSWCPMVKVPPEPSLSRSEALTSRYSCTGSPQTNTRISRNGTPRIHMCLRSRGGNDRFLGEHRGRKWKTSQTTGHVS
Chain of honeybee tachykinin-related peptide receptor (FLAG-TRPR) expressed in Sf21 cells (Apis mellifera) (A0ACM8RFV8 entry or part of it): as above

Molecule: short neuropeptide F [SNF, reference compound]
- cAMP accumulation [1]: did not induce any detectable cAMP accumulation
- cAMP accumulation [2]: did not induce any detectable cAMP accumulation

Molecule: APMGFQGMRa [TRP3]
- competitive binding (residual TAMRA-TRP binding) ([3]; Log (M) -4, replicate 1): 5.1560
- competitive binding (residual TAMRA-TRP binding) ([3]; Log (M) -4, replicate 2): 4.9306
- competitive binding (residual TAMRA-TRP binding) ([3]; Log (M) -4, replicate 3): 5.6578
- competitive binding (residual TAMRA-TRP binding) ([3]; Log (M) -5, replicate 1): 9.5134
- competitive binding (residual TAMRA-TRP binding) ([3]; Log (M) -5, replicate 2): 5.2301
- competitive binding (residual TAMRA-TRP binding) ([3]; Log (M) -5, replicate 3): 6.7532
- competitive binding (residual TAMRA-TRP binding) ([3]; Log (M) -6, replicate 1): 19.3191
- competitive binding (residual TAMRA-TRP binding) ([3]; Log (M) -6, replicate 2): 12.3643
- competitive binding (residual TAMRA-TRP binding) ([3]; Log (M) -6, replicate 3): 13.3614
- competitive binding (residual TAMRA-TRP binding) ([3]; Log (M) -7, replicate 1): 23.7138
- competitive binding (residual TAMRA-TRP binding) ([3]; Log (M) -7, replicate 2): 20.6042
- competitive binding (residual TAMRA-TRP binding) ([3]; Log (M) -7, replicate 3): 26.4738
- competitive binding (residual TAMRA-TRP binding) ([3]; Log (M) -8, replicate 1): 49.0125
- competitive binding (residual TAMRA-TRP binding) ([3]; Log (M) -8, replicate 2): 48.4899
- competitive binding (residual TAMRA-TRP binding) ([3]; Log (M) -8, replicate 3): 40.9813
- competitive binding (residual TAMRA-TRP binding) ([3]; Log (M) -9, replicate 1): 72.5758
- competitive binding (residual TAMRA-TRP binding) ([3]; Log (M) -9, replicate 2): 73.4731
- competitive binding (residual TAMRA-TRP binding) ([3]; Log (M) -9, replicate 3): 66.5477
- competitive binding (residual TAMRA-TRP binding) ([3]; Log (M) -10, replicate 1): 84.1720
- competitive binding (residual TAMRA-TRP binding) ([3]; Log (M) -10, replicate 2): 90.8395
- competitive binding (residual TAMRA-TRP binding) ([3]; Log (M) -10, replicate 3): 88.1290
- competitive binding (residual TAMRA-TRP binding) ([3]; Log (M) -11, replicate 1): 92.0860
- competitive binding (residual TAMRA-TRP binding) ([3]; Log (M) -11, replicate 2): 97.3869
- competitive binding (residual TAMRA-TRP binding) ([3]; Log (M) -11, replicate 3): 95.5950
- competitive binding (residual TAMRA-TRP binding) ([3]; Log (M) -12, replicate 1): 93.1313
- competitive binding (residual TAMRA-TRP binding) ([3]; Log (M) -12, replicate 2): 100.0000
- competitive binding (residual TAMRA-TRP binding) ([3]; Log (M) -12, replicate 3): 92.9969
- competitive binding ([4]; Log (M) -4, replicate 1): 26.3879
- competitive binding ([4]; Log (M) -4, replicate 2): 30.2236
- competitive binding ([4]; Log (M) -4, replicate 3): 35.2235
- competitive binding ([4]; Log (M) -5, replicate 1): 39.1647
- competitive binding ([4]; Log (M) -5, replicate 2): 34.4531
- competitive binding ([4]; Log (M) -5, replicate 3): 41.6285
- competitive binding ([4]; Log (M) -6, replicate 1): 40.2510
- competitive binding ([4]; Log (M) -6, replicate 2): 48.0008
- competitive binding ([4]; Log (M) -6, replicate 3): 38.3975
- competitive binding ([4]; Log (M) -7, replicate 1): 53.7851
- competitive binding ([4]; Log (M) -7, replicate 2): 58.0646
- competitive binding ([4]; Log (M) -7, replicate 3): 56.8212
- competitive binding ([4]; Log (M) -8, replicate 1): 73.9138
- competitive binding ([4]; Log (M) -8, replicate 2): 70.3389
- competitive binding ([4]; Log (M) -8, replicate 3): 76.0795
- competitive binding ([4]; Log (M) -9, replicate 1): 79.8334
- competitive binding ([4]; Log (M) -9, replicate 2): 84.1204
- competitive binding ([4]; Log (M) -9, replicate 3): 84.2025
- competitive binding ([4]; Log (M) -10, replicate 1): 93.5892
- competitive binding ([4]; Log (M) -10, replicate 2): 92.3234
- competitive binding ([4]; Log (M) -10, replicate 3): 96.9419
- competitive binding ([4]; Log (M) -11, replicate 1): 93.4444
- competitive binding ([4]; Log (M) -11, replicate 2): 100.0000
- competitive binding ([4]; Log (M) -11, replicate 3): 96.2965
- competitive binding ([4]; Log (M) -12, replicate 1): 95.2946
- competitive binding ([4]; Log (M) -12, replicate 2): 98.1256
- competitive binding ([4]; Log (M) -12, replicate 3): 92.1545
- increase of cAMP levels [1]: more than 10 fold
- intracellular Ca2+ levels [5]: rose sharply

Molecule: pertussis toxin [PTX]
- inhibition of TRP/TRPR-mediated ERK activation [6]: had no effect
- inhibition of TRP/TRPR-mediated ERK activation [7]: had no effect

Molecule: corazonin [CRZ, reference compound]
- cAMP accumulation [1]: did not induce any detectable cAMP accumulation
- cAMP accumulation [2]: did not induce any detectable cAMP accumulation

Molecule: pigment-dispersing hormone [PDH, reference compound]
- cAMP accumulation [1]: did not induce any detectable cAMP accumulation
- cAMP accumulation [2]: did not induce any detectable cAMP accumulation

Molecule: Cl.Cl.O=S(=O)(NCCNC/C=C/c1ccc(Br)cc1)c1cccc2cnccc12 [H89]
- inhibition of TRP/TRPR-mediated ERK activation [6, 12]: significant inhibition
- cAMP accumulation ([8]; Suppl.3B, with TRP2, replicate 1): 18.636
- cAMP accumulation ([8]; Suppl.3B, with TRP2, replicate 2): 15.003
- cAMP accumulation ([8]; Suppl.3B, with TRP2, replicate 3): 13.325
- cAMP accumulation ([8]; Suppl.3B, with ddH2O (no TRP2), replicate 1): 3.551
- cAMP accumulation ([8]; Suppl.3B, with ddH2O (no TRP2), replicate 2): 2.309
- cAMP accumulation ([8]; Suppl.3B, with ddH2O (no TRP2), replicate 3): 2.639
- inhibition of TRP/TRPR-mediated ERK activation [7, 13]: significant inhibition

Molecule: cholera toxin [CTX]
- cAMP accumulation [8]: 18.981 and 16.723 and 16.035 and 22.197 and 20.493 and 23.072

Molecule: COc1ccc2c(c1)c(C1=C(c3c[nH]c4ccccc34)C(=O)NC1=O)cn2CCCN(C)C [Go6983]
- inhibition of TRP/TRPR-mediated ERK activation [6, 12]: significant inhibition
- inhibition of TRP/TRPR-mediated ERK activation [7, 13]: significant inhibition

Molecule: N#CC(=C(/N)Sc1ccccc1N)/C(C#N)=C(/N)Sc1ccccc1N [U0126]
- inhibition of TRP/TRPR-mediated ERK activation [6, 12]: significant inhibition
- inhibition of TRP/TRPR-mediated ERK activation [7, 13]: significant inhibition

Molecule: ALMGFQGVR (ends and bridges not checked) [tachykinin-related peptide 2 (TRP2), unlabeled synthetic peptide]
- luciferase activity (pCRE-Luc reporter of cAMP) of HEK293 cells co-transfected with pFLAG-TRPR, 1 μM TRP2, against vehicle vector [9]: > 10 fold
- EC50 of ERK1/2 phosphorylation (Western blot) in Sf21 cells expressing TRPR, TRP2 from 0.1 pM to 1 μM for 10 min [10]: 1.68 nM
- EC50 of ERK1/2 phosphorylation (Western blot) in HEK293 cells expressing TRPR, TRP2 from 0.1 pM to 1 μM for 10 min [11]: 68 nM

Molecule: APMGFQGMR-NH2 [tachykinin-related peptide 3 (TRP3), unlabeled synthetic peptide]
- luciferase activity (pCRE-Luc reporter of cAMP) of HEK293 cells co-transfected with pFLAG-TRPR, 1 μM TRP3, against vehicle vector [9]: > 10 fold
